Experimental data published in patent US4000280A, “Pharmaceutical compositions containing an amphetamine derivative for the alleviation of anxiety or treatment of depression” (Astra Lakemedel Aktiebolag, priority 1975, dated 1976).

Experiments:
[1] = system: mice; test: Motor activity in mice (exploratory activity in locomotion cage); assay type: in vivo; design: key to Motor Activity: +: increase; -: decrease; 0: no effect; settings: for Motor Activity: recorded for 10 minutes 1 hour after administration, compared to control groups, i.p.; for central stimulation (in words): motor activity in mice
Protocol: The lack of euphoric effects, that is lack of central stimulatory activity, is tested by measuring the motor activity in mice after administration of the test substance.
The exploratory activity of mice was recorded in a locomotion cage in which the movements were counted each time the animals cross-circuits an electrical current in the bottom plate. The activity was recorded for 10 minutes 1 hour after the administration of the drug. The animals were tested individually. Groups of six mice were used and the mice were only used once. The activity was expressed in percent of the activity of control groups ran simultaneously. The compounds were administered in at least four doses. The increase (+) or decrease (-) of the activity compared to control groups was determined from log dose response curves.

[2] = system: 5-HTP response; test: 5-HTP response potentiation test (potentiation of behavioral syndrome after dl-5-HTP); assay type: in vivo, mice; settings: Mus musculus, ip; dl-5-HTP 90 mg/kg i.v.; at least five doses; probit analysis (Litchfield and Wilcoxon)
From the text: It is not possible by experimental means to induce depressions in laboratory animals. In order to evaluate a possible anti depressive effect on new substances biochemical-pharmacological test methods must be resorted to. One such method, which seems to give a good indication of the potential anti depressive effects of the test substances, is described in Europ. J. Pharmacol. 17, 107, 1972. This method involves the measurement of the potentiation of the syndromes produced by 5-hydroxytryptophan (5-HTP) in a laboratory animal.
Inhibition of the uptake of 5-HT potentiates the effects of administered 5-hydroxytryptophan (5-HTP) probably by increasing the amount of 5-HT at the receptor. Three mice are given the test drugs 1 hour (or 4, 24 hours) before dl-5-HTP, 90 mg/kg i.v. 5-HTP alone gives only a weak behavioral syndrome but in pretreated mice there is seen a characteristic behavioral syndrome, which comes within 5 minutes: tremor, lordosis, abduction of the hind-legs, head-twitches.
The absence or presence of respective syndrome is scored in groups of 10 mice. The compound was administered in at least five doses and the quantal responses were analysed by probit analysis and ED50 determined according to the method of Litchfield and Wilcoxon.

[3] = system: isolated mice; test: Aggressive behavior in isolated male mice (antiaggressive activity); assay type: in vivo; settings: Mus musculus, ip, 5 min; i.p.; dose which reduces the aggressiveness score by 50%; 5 min test; read-out: Antiaggressive behaviour in mice ED50
Protocol: Potential anxiolytic activity is tested by measuring the antiaggressivity in isolated mice after administration of the test substance. In this test not amphetamine but Valium -- a well-known anxiolytic substance -- is used as a reference.
Male mice kept isolated for 3 weeks or longer develop an aggressive behavior when caged together. The method used follows that of Valzelli et al. (Europ. J. Pharmacol. 2, 144, 1967), with the exception that two mice were tested on each other. The aggressiveness was scored during a 5 min test according to the following schedule:
0 the animals show no interest in each other except occasional nosing
25 frequent vigorous nosing and tail rattling, the animals assume a fighting position and occasionally attack each other -- no more than 3-4 times in the 5 min period
50 tail rattling, powerful attacks -- no more than 10 times in the test period
75 the animals follow their partners, attacking and biting for most of the time
100 attacks over the entire period.
The animals were used for several experiments but with intervals of at least 1 week. Groups of 10 mice were used.
ED50 is the dose which reduces the aggressiveness score by 50%.

| Compound | Motor Activity [1] | also measured |
| --- | --- | --- |
| CCC(N)Cc1ccc(N(C)C)cc1Cl (stereo not shown) [H 2-Cl CH3 CH3 H C2 H5] | 0 |  |
| Cc1cc(N(C)C)ccc1CC(C)N.Cl.Cl (stereo not drawn) [H 2-CH 3 CH3 CH3 H CH3, 2-Methyl-4-dimethylamino-α-methylphenethylamine dihydrochloride] | - |  |
| CC(N)Cc1c(Cl)cc(N(C)C)cc1Cl.Cl.Cl (stereo not drawn) [2-Cl 6-Cl CH3 CH3 H CH3, 2,6-Dichloro-4-dimethylamino-α-methylphenethylamine dihydrochloride] | - |  |
| CC(N)Cc1ccc(Cl)cc1 (stereo not shown) [P-Chloroamphetamine, reference compound] |  | central stimulation (in words) [1]: pronounced |
| CC(N)Cc1ccc(N(C)C)cc1Cl.Cl.Cl (stereo not drawn) [H 2-Cl CH3 CH3 H CH3, 2-Chloro-4dimethylamino-α-methylphenethylamine dihydrochloride] | - |  |
| CC(N)Cc1ccccc1 (stereo not shown) [Amphetamine] |  | central stimulation (in words) [1]: pronounced |
| CCN(CC)c1ccc(CC(C)N)cc1 (stereo not shown) [H H C2 H5 C2 H5 H CH3] | - |  |
| CN(C)c1ccc(CC(C)(C)N)cc1.Cl.Cl [H H CH3 CH3 CH3 CH3, 4-Dimethylamino-α, α-dimethylphenethylamine dihydrochloride] | 0 |  |
| CC(N)Cc1ccc2c(c1)CCCN2C.Cl.Cl (stereo not shown) [H H CH3 (CH2)3 H CH3, 6-(2-Aminopropyl)-1-methyl-1,2,3,4-tetrahydroquinoline dihydrochloride] |  | ED50 [2]: 1.5 mg/kg; ED50 [3]: > 5 mg/kg |
